In patent US12286661B2, “Methods for making high intensity sweeteners” (Firmenich Incorporated, priority 2018, dated 2025):
Entries after “also recorded” stand apart in the source; their conditions may differ.

Columns and labels:
[1] = test system: Saccharomyces cerevisiae, Yarrowia lipolytica and Candida bombicola; assay: Tolerance to microbial hydrolysis: yeast strains incubated in YPD with 1 mg/ml compound, supernatants analysed by HPLC; assay type: cell-based; details: after 3 days
Description: Yeast strains Saccharomyces cerevisiae, Yarrowia lipolytica and Candida bombicola, were incubated in YPD supplemented with 1 mg/ml Mogroside V or Compound 1. After 3 days, supernatants were analyzed by HPLC.

S. cerevisiae = assay: Hydrolysis by hydrolytic enzymes of yeast grown in the presence of the compound, HPLC of lysed cells; assay type: cell-based; details: for mogroside content after incubation: S. cerevisiae
Description: (§1) S. cerevisiae or Y. lipolytica was grown in the presence of Mogroside V to allow the hydrolytic enzymes in the yeast to generate Mogroside IIIE. After 1 or 2 days, the cells were lysed in analyzed by HPLC to determine the mogroside content.
(§2) S. cerevisiae or Y. lipolytica was grown in the presence of Compound 1.

Y. lipolytica = assay: as above; assay type: cell-based
Description: as §1, §2

mogrol precursors = assay: Mogrol production by EPHs tested in a yeast strain producing mogrol precursors; assay type: cell-based
Source text: DNA was obtained through gene synthesis either through Genescript, IDT, or Genewiz. For some of the cucurbitadienol synthases, cDNA or genomic DNA was obtained through 10-60 day old seedlings followed by PCR amplification using specific and degenerate primers. DNA was cloned through standard molecular biology techniques or through yeast gap repair cloning (Joska et al., 2014) into one of the following overexpression vectors: pESC-Ura, pESC-His, or pESC-LEU. Gene expression was regulated by one of the following promoters; Gall, Gal10, Tef1, or GDS. Yeast transformation was performed using Zymo Yeast Transformation Kit II. Yeast strains were grown in standard media (YPD or SC) containing the appropriate selection with 2% glucose or 2% galactose for induction of heterologous genes. Yeast strains were grown in shake flask or 96 well plates at 30° ° C., 140-250 rpm. When indicated, lanosterol synthase inhibitor, Ro 48-8071 (Cayman Chemicals) was added (50 ug/ml). […]

[2] = test system: cucurbitadienol synthase activity; assay: Cucurbitadienol synthase activities of fusion proteins in yeast strain with oxidosqualene boost, LCMS; assay type: cell-based, S. cerevisiae; details: average % activities over the average activities of the parent enzyme (Cucumis melo cucurbitadienol synthase)
Description: For analyzing cucurbitadienol, the first LCMS method included the use of C4 2.1×100 mm column, gradient 1 to 95% B for 6 minutes, and at flow rate of 0.55 ml/min; and the second LCMS method included the use of Waters Acquity UPLC Protein BEH C4 2.1×100 […], 1.7 μm, with guard, 62 to 67% B for 2 min, 100% B for 1 min, and at flow rate of 0.9 ml/min and ESI source positive single ion monitoring of 427 and 409.
The gene encoding for a cucurbitadienol synthase form Cucumis melo was codon optimized (SEQ ID: 907) and used as a starting point for generating a library of modifications. Modifications were introduced through standard molecular biology techniques consisting of fusion peptides at the N-terminus (i.e., 5′) or C-terminus (i.e., 3′) end of the enzyme. Plasmids libraries of modified cucurbitadienol synthase genes were transformed into a yeast strain with oxidosqualene boost. Enzyme activities were measured by ratios of peak heights or areas of 409 and 427 positive mass fragments at the expected retention times for cucurbitadienol vs. an internal standard using LCMS method 2 described above. Enzyme performance were scored as average % activities over the average activities of the parent enzyme (n=8). Step 1 sequences of the enzymes and the sequences that encode the enzyme can be found in SEQ ID NOs: 951-1012. Step 1 sequence also include the fusions SS2c-G10, SS2e-A7b, SS2d-G11. […]

C[C@H](CC[C@@H](O[C@@H]1O[C@H](CO[C@@H]2O[C@H](CO)[C@@H](O)[C@H](O)[C@H]2O)[C@@H](O)[C@H](O)[C@H]1O[C@@H]1O[C@H](CO)[C@@H](O)[C@H](O)[C@H]1O)C(C)(C)O)[C@H]1CC[C@@]2(C)[C@@H]3CC=C4[C@@H](CC[C@H](O[C@@H]5O[C@H](CO[C@@H]6O[C@H](CO)[C@@H](O)[C@H](O)[C@H]6O)[C@@H](O)[C@H](O)[C@H]5O)C4(C)C)[C@]3(C)[C@H](O)C[C@]12C [Mogroside V, reference compound]
hydrolysis by yeast strains (hydrolysis products by HPLC) [1]: hydrolyzed Mogroside V to Mogroside IIIE | mogroside content after incubation (S. cerevisiae; 1 day of incubation): produced a mixture of Mogroside V, Mogrosides IV, and Mogroside IIIE | mogroside content after incubation (S. cerevisiae; 2 days of incubation): substantially all of the mogrosides were converted to Mogroside IIIE | mogroside content after incubation (Y. lipolytica; Y. lipolytica, 2 days of incubation): produced mostly Mogroside IIIE

C[C@H](CC[C@@H](O[C@@H]1O[C@H](CO[C@H]2O[C@H](CO)[C@@H](O)[C@H](O)[C@H]2O)[C@@H](O)[C@H](O)[C@H]1O[C@@H]1O[C@H](CO)[C@@H](O)[C@H](O)[C@H]1O)C(C)(C)O)C1CC[C@@]2(C)C3CC=C4C(CC[C@H](O[C@@H]5O[C@H](CO)[C@@H](O)[C@H](O)[C@H]5O)C4(C)C)[C@]3(C)[C@H](O)C[C@]12C (stereo partly drawn) [Compound 1]
hydrolysis by yeast strains (hydrolysis products by HPLC) [1]: no hydrolysis products observed; also recorded: tolerance of Compound 1 to hydrolysis by microbial enzymes | hydrolysis products (S. cerevisiae; S. cerevisiae grown in the presence of the compound): no hydrolysis products due to hydrolysis of Compound 1 was observed; also recorded: no hydrolysis product from Compound 1 was detected | hydrolysis products (Y. lipolytica; Y. lipolytica grown in the presence of the compound): no hydrolysis products due to hydrolysis of Compound 1 was observed; also recorded: no hydrolysis product from Compound 1 was detected

B1: SEQ ID NO. 1072 and 1073: epoxide hydrolase (EPH); coding DNA and protein sequence (protein)
chain: MDAIQHTTIKTNGIKMHIASVGNGPVVLLLHGFPELWYSWRHQLLYLSSVGYRAIAPDLRGYGDTDSPESHTSYTALHIVGDLVGALDELGIEKVFLVGHDWGAIIAWYFCLFRPERIKALVNLSVQFFPRNPAISFIQRFRAAYGDDFYMCRFQVPGEAEADFACIDTAQLFKTTLSNRSTKAPCLPKEYGFRAIPPPENLPSWLTEEDINYYAAKFKETGFTGALNYYRAFDLTWELTAPWTGVQIQVPVKFIVGDSDLTYHFKGAKEYIHEGGFKRDVPLLEEVVIVENAGHFVHEEKPHEINTHIHDFIKKF
modifications: Cucumis melo
ability to produce mogrol (mogrol precursors): showed the ability to produce mogrol

B2: SEQ ID NO 1024: fusion protein having cucurbitadienol synthase activity (protein, listed as Citrullus lanatus)
chain: MWTILLGLATLAIAYYIHWVNKWKDSKFNGVLPPGTMGLPLIGETIQLSRPSDSLDVHPFIQSKVKRYGPIFKTCLAGRPVVVSTDAEFNHYIMLQEGRAVEMWYLDTLSKFFGLDTEWLKALGLIHKYIRSITLNHFGAESLRERFLPRIEESARETLHYWSTQPSVEVKESAAAMVFRTSIVKMFSEDSSKLLTGGLTKKFTGLLGGFLTLPLNLPGTTYNKCIKDMKEIQKKLKDILEERLAKGTGNDEDFLGQAIKDKESQQFISEEFIIQLLFSISFASFESISTSLTLILKFLADHPQVVKELEAEHEAIQKARADPDGPITWEEYKSMTFTLNVISETLRLGSVTPALLRKTTKEIQIKGYTIPEGWTVMLVTASRHRDPEVYKDPDTFNPWRWKELDSITVQKNFMPFGGGLRHCAGAEYSKVYLCTFLHILFTKYRWTKLKGGKIARAHILRFEDGLHVKFTPKE
Activity (as compared to the parent) [2]: 166%
